Assay results published in patent US8697911B2, “Rho kinase inhibitors” (Boehringer Ingelheim International GmbH, priority 2010, dated 2014).

How the values were obtained:
ROCKII (1-543) [1] = biological target: T1, ROCKII (1-543) (Homo sapiens (Human), UniProt O75116); assay: IMAP Assay (Assay 2); type: biochemical; details: IMAP fluorescence polarization; 100 μM ATP, 1 nM kinase
Description: This assay is performed using FAM S6 substrate peptide (Catalogue #R7184) and IMAP FP Screening Express Kit detection reagents from Molecular Devices (Sunnyvale, Calif.) in IMAP kinase reaction buffer (Tris-HCl, pH 7.2, 10 mM MgCl2, 0.05% NaN3, 0.1% phosphate-free BSA) containing 1 mM DTT. Test compounds dissolved in neat DMSO at 0.3 mg/mL are serially diluted 1 to 3 for concentration response in 100% DMSO. The DMSO serial dilutions are further diluted 33.33-fold in kinase reaction buffer, and 10 μL of this buffer dilution is transferred to Corning black 96-well half area NBS plates for a final top concentration of 3 μg/mL in 1% DMSO. 10 μL aliquot of 3 nM ROCKII (1-543) diluted in kinase reaction buffer is added to each assay well for a final concentration of 1 nM kinase. 10 μL of a mixture of 600 nM FAM S6 peptide and 300 μM ATP diluted in kinase reaction buffer is added to each well for a final concentration of 200 nM peptide and 100 μM ATP. The kinase reaction mixture is incubated for 60 minutes at room temperature. Positive controls are reaction mixtures containing no test compound and negative controls (blanks) are reaction mixtures containing no kinase. The kinase reaction is stopped by addition of 60 μL IMAP progressive binding reagent (Catalog #R7284) diluted 400-fold in 1× Binding buffer A. After 30 min of incubation at room temperature, the plates are read for fluorescence polarization on Analyst Plate Reader using Ex 485 nm, Em 530 nm, and FL 505 dichroic minor. The mP signals are converted to percent of control (POC) values using the formula: POC=100*(Signal−BCTRL)÷(PCTRL−BCTRL)
Where Signal is the test well signal, BCTRL is the average of background (negative control) well signals on the plate and PCTRL is the average of positive control well signals on the plate. For the concentration-responsive compounds, POC as a function of test compound concentration is fitted to a 4-parameter logistic equation of the form: Y=A+(B−A)/[1+(x/C)D]
Where A, B, C, and D are fitted parameters (parameter B is fixed at zero POC), and x and y are the independent and dependent variables, respectively. The IC50 is determined as the inflection point parameter, C.
Target sequence in this assay (O75116 1-543, species assumed): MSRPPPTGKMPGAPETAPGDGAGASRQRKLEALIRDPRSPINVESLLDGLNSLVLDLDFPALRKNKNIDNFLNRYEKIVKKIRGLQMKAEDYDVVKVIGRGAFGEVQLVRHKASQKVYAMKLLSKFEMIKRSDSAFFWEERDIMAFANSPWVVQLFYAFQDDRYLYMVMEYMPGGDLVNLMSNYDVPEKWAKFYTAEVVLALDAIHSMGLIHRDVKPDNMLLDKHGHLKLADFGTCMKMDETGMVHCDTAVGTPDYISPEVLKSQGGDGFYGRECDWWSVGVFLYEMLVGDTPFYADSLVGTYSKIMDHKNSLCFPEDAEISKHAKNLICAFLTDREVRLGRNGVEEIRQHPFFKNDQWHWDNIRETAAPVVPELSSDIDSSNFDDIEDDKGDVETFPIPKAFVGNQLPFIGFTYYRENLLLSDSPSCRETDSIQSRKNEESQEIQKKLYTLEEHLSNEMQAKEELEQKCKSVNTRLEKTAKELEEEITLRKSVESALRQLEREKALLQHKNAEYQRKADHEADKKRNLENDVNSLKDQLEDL

ROCKII (1-543) [2] = biological target: T1, ROCKII (1-543); assay: Luciferin-Luciferase Assay (Assay 1); type: biochemical; details: luciferin-luciferase residual ATP; 750 nM ATP, 7.5 nM kinase
Description: 1. Luciferin-Luciferase Assay
The activity of ROCKII (1-543) kinase is measured utilizing Cambrex PKLight ATP Detection Reagent, a homogeneous assay technology using luciferin-luciferase to quantify residual ATP. The assay is performed in 384-well low-volume, white, non-binding surface microtiter plates (Corning). The assay buffer is 25 mM HEPES, pH 7.5, 10 mM MgCl2, 50 mM KCl, 0.2% BSA, 0.01% CHAPS, 100 μM Na3VO4 and 0.5 mM DTT. Test compounds, dissolved in neat DMSO at 500 μg/mL, are serially diluted for dose response for a final starting concentration of 3 μg/mL in 1% DMSO of assay buffer. ROCKII (1-543) (62,408 Da) is diluted in assay buffer to a final concentration of 7.5 nM in a total volume of 15 μL. Positive controls are reaction mixtures containing no test compound; negative controls (blanks) are reaction mixtures containing no kinase. After 15 minutes of pre-incubation of the test compounds with the kinase, a mixture of ATP and peptide substrate ([…]) in assay buffer is added to each well for a final concentration of 750 nM ATP and 500 nM peptide, respectively. After 90 minutes of incubation of the kinase reaction at 28° C. temperature, 10 μL of PKLight ATP Detection Reagent (warmed to room temperature previously) is added to each well. The assay plate is incubated at room temperature for additional 15 minutes and then read on an Analyst in luminescence mode. Dose-response experiments for each of the test compounds are conducted in quadruplet. IC50 values of test compounds represent 50% response of the positive control from the dose-response curve.
Target sequence in this assay (O75116 1-543): as the sequence (O75116 1-543, species assumed) above

Row | Structure (SMILES) | IC50 (ROCKII (1-543) [1]) [nM] | IC50 (ROCKII (1-543) [2]) [nM]
1 | CN1CCc2nc(NC(=O)c3cccc(CNC(=O)c4csc(-c5ccncc5)n4)c3)sc2C1 [compound 22] | 37 | 5.8
2 | Cc1nnnn1-c1ccc(C(=O)NCc2cccc(C(=O)Nc3nc4c(s3)C[C@@H](N)CC4)c2)cc1 [compound 38] | 0.67 | 1.1
3 | CN1CCc2nc(NC(=O)c3cccc(CNC(=O)c4csc(-c5cccnc5)n4)c3)sc2C1 [compound 14] | 7.9 | 4.8
4 | Cc1nnnn1-c1ccc(C(=O)NCc2cccc(C(=O)Nc3nc4c(s3)CN(C)CC4)c2)cc1 [compound 8] | 9.8 | 6
5 | N[C@@H]1CCc2nc(NC(=O)c3cccc(CNC(=O)c4cccc(-c5cn[nH]c5)c4)c3)sc2C1 [compound 28] | 0.45 | 1.1
6 | Cc1c(C(=O)NCc2cccc(C(=O)Nc3nc4c(s3)C[C@@H](N3CCOCC3)CC4)c2)nnn1-c1nonc1N [compound 152] | 0.57 | 1.9
7 | CN1CCc2nc(NC(=O)c3cccc(CNC(=O)c4cccc(-c5cccnc5)c4)c3)sc2C1 [compound 4] | 73 | 22.5
8 | CN1CCc2nc(NC(=O)c3cccc(CNC(=O)c4cc(-c5ccncc5)n[nH]4)c3)sc2C1 [compound 74] | 0.23 | 1.3
9 | CN1CCc2ccc(NC(=O)c3cccc(CNC(=O)c4ccc(-n5ccnc5)cc4)c3)cc2C1 [compound 39] | 9.9 | 4.9
10 | CN1CCc2nc(NC(=O)c3cccc(CNC(=O)c4nnn(-c5nonc5N)c4-c4ccccc4)c3)sc2C1 [compound 46] | 4.9 | 1.8
11 | CN1CCc2ccc(NC(=O)c3cccc(CNC(=O)c4cn5cc(C(N)=O)ccc5n4)c3)cc2C1 [compound 21] | 25 | 5.9
12 | Cc1cc(-c2ccc(C(=O)NCc3cccc(C(=O)Nc4nc5c(s4)CN(C)CC5)c3)cc2)ccn1 [compound 144, 3-[4-(2-picoline-4-yl)-benzamidomethyl-N-(5-methyl-4,5,6,7-tetrahydro-thiazolo[5,4-c]pyridin-2-yl)-benzamide]] | 4.35 | 2.6
13 | CN1CCc2ccc(NC(=O)c3cccc(CNC(=O)c4cc5cc(C#N)ccc5n4C)c3)cc2C1 [compound 94] | 46 | 8.1
14 | CN1CCc2ccc(NC(=O)c3cccc(CNC(=O)c4cnc(-c5cccnc5)s4)c3)cc2C1 [compound 194] | 30 | 4.8
15 | CN1CCc2ccc(NC(=O)c3cccc(CNC(=O)c4cc5ccc(C#N)cc5n4C)c3)cc2C1 [compound 92] | 17 | 4.1
16 | CN1CCc2ccc(NC(=O)c3cccc(CNC(=O)c4ccc(C5=CSNN5)cc4)c3)cc2C1 [compound 31] | 4.6 | 4.6
17 | CN(C)[C@H]1CCc2nc(NC(=O)c3cccc(CNC(=O)c4cn5cc(C#N)ccc5n4)c3)sc2C1 [compound 100] | 2.6 | 1.7
18 | CN1CCc2ccc(NC(=O)c3cccc(CNC(=O)c4ccc(-c5cnco5)cc4)c3)cc2C1 [compound 49] | 26 | 2.6
19 | N[C@H]1CCc2nc(NC(=O)c3cccc(CNC(=O)c4ccc(-c5csnn5)cc4)c3)sc2C1 [compound 26] | 40 | 7.6
20 | Cc1c(C(=O)NCc2cccc(C(=O)Nc3nc4c(s3)CN(C)CC4)c2)nnn1-c1nonc1N [compound 44] | 9.3 | 1.8
21 | CN1CCc2ccc(NC(=O)c3cccc(CNC(=O)c4cccc(-c5cn[nH]c5)c4)c3)cc2C1 [compound 3] | 5.1 | 4
22 | CN1CCc2ccc(NC(=O)c3cccc(CNC(=O)c4ccc(-c5cc[nH]n5)cc4)c3)cc2C1 [compound 155] | 47 | 8.1

Row | Structure (SMILES) | IC50 (ROCKII (1-543) [1]) [nM] | IC50 (ROCKII (1-543) [2]) [nM]
23 | CN1CCc2ccc(NC(=O)c3cccc(CNC(=O)c4cc5ccc(C#N)cc5[nH]4)c3)cc2C1 [compound 52] | 8.1 | 2.2
24 | CN1CCc2ccc(NC(=O)c3cccc(CNC(=O)c4cc5cc(C#N)ccc5[nH]4)c3)cc2C1 [compound 80] | 0.58 | 1.5
25 | CN1CCc2ccc(NC(=O)c3cccc(CNC(=O)c4csc(-c5cccnc5)n4)c3)cc2C1 [compound 27] | 45 | 9.8
26 | Cc1nnnn1-c1ccc(C(=O)NCc2cccc(C(=O)Nc3nc4c(s3)C[C@H](N)CC4)c2)cc1 [compound 36] | 3 | 1.4
27 | Cc1nccn1-c1ccc(C(=O)NCc2cccc(C(=O)Nc3ccc4c(c3)CN(C)CC4)c2)cc1 [compound 200] | 1.6 | 3
28 | CN1CCc2ccc(NC(=O)c3cccc(CNC(=O)c4cc5cc(C(N)=O)ccc5n4C)c3)cc2C1 [compound 96] | 12.2 | 3.8
29 | CN1CCc2ccc(NC(=O)c3cccc(CNC(=O)c4cc(-c5ccncc5)[nH]n4)c3)cc2C1 [compound 119] | 0.22 | 1.3
30 | N[C@H]1CCc2nc(NC(=O)c3cccc(CNC(=O)c4cccc(-c5cn[nH]c5)c4)c3)sc2C1 [compound 30] | 0.16 | 0.72
31 | CN1CCc2nc(NC(=O)c3cccc(CNC(=O)N4CCc5c(C#N)cccc54)c3)sc2C1 [compound 90] | 17 | 3.1
32 | CN1CCc2ccc(NC(=O)c3cccc(CNC(=O)c4ccc(-c5cnco5)s4)c3)cc2C1 [compound 64] | 1 | 1.5
33 | CN1CCc2ccc(NC(=O)c3cccc(CNC(=O)c4nnn(-c5nonc5N)c4-c4ccccc4)c3)cc2C1 [compound 123] | 3.9 | 1.7
34 | CN1CCc2ccc(NC(=O)c3cccc(CNC(=O)c4cccc(-c5cnco5)c4)c3)cc2C1 [compound 190] | 56 | 6.5
35 | CN1CCc2nc(NC(=O)c3cccc(CNC(=O)c4cc5cc(C#N)ccc5n4C)c3)sc2C1 [compound 124] | 11 | 3.8
36 | CN1CCc2ccc(NC(=O)c3cccc(CNC(=O)c4ccc(-c5ccncc5)cc4)c3)cc2C1 [compound 129] | 0.195 | 1.3
37 | Cc1nc(-c2ccncc2)sc1C(=O)NCc1cccc(C(=O)Nc2ccc3c(c2)CN(C)CC3)c1 [compound 95] | 1.25 | 1.4
38 | CN1CCc2ccc(NC(=O)c3cccc(CNC(=O)c4ccc(-c5ccn[nH]5)cc4)c3)cc2C1 [compound 179] | 34 | 6.6
39 | CN1CCc2ccc(NC(=O)c3cccc(CNC(=O)c4cn5ccc(C(N)=O)cc5n4)c3)cc2C1 [compound 50, imidazo[1,2-a]pyridine-2,7-dicarboxylic acid 7-amide 2-[3-(2-methyl-1,2,3,4-tetrahydro-isoquinolin-7-ylcarbamoyl)-benzylamide]] | 11 | 2.9
40 | CN1CCc2ccc(NC(=O)c3cccc(CNC(=O)c4ccc5cc(O)ccc5c4)c3)cc2C1 [compound 29] | 2 | 2.6
41 | Cc1c(C(=O)NCc2cccc(C(=O)Nc3ccc4c(c3)CN(C)CC4)c2)nnn1-c1nonc1N [compound 125] | 26 | 5.9
42 | N[C@@H]1CCc2nc(NC(=O)c3cccc(CNC(=O)c4cccc(-c5cccnc5)c4)c3)sc2C1 [compound 40] | 10 | 1.9
43 | CN1CCc2ccc(NC(=O)c3cccc(CNC(=O)c4cc5ccc(C(N)=O)cc5[nH]4)c3)cc2C1 [compound 54] | 0.45 | 1.3
